The values below come from patent publication US10005792B2, “Aminoindane-, aminotetrahydronaphthalene- and aminobenzocyclobutane-derived PRMT5-inhibitors” (CTXT PTY LTD, priority 2014, dated 2018).

SMILES strings stand for the structures. pIC50: −log10 of the molar value. Counter-ions that a name gives are not always drawn.

Full-length PRMT5 enzyme co-expressed with MEP50, sequence (O14744 whole entry): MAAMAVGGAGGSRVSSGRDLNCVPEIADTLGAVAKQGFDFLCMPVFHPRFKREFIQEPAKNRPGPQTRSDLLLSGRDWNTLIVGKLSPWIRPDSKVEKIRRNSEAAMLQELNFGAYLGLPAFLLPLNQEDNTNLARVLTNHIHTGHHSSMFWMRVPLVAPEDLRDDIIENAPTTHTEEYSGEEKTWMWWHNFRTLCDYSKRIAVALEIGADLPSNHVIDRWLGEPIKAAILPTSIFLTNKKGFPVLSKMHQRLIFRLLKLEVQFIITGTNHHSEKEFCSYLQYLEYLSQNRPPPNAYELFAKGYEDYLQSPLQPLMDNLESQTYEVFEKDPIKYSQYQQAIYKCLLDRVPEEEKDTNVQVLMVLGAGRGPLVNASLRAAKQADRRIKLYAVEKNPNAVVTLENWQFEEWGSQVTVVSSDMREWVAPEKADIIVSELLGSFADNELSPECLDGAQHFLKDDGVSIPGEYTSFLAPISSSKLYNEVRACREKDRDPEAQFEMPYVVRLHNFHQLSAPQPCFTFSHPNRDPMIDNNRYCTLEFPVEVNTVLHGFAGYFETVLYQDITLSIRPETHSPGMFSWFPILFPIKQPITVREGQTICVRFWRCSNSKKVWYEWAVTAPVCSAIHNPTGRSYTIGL
Full-length PRMT5 enzyme co-expressed with MEP50, sequence (Q9BQA1 whole entry partner): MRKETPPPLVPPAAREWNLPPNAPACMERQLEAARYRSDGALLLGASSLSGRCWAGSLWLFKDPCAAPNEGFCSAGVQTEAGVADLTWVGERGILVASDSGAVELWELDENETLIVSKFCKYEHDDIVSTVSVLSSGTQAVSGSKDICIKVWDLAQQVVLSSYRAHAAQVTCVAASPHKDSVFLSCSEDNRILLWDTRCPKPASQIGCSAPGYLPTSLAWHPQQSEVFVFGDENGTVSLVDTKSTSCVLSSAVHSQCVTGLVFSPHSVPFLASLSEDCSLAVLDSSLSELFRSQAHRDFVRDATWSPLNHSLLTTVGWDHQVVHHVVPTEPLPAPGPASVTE

This assay has as its target Full-length PRMT5 enzyme co-expressed with MEP50 (Homo sapiens (Human), UniProt O14744). The assay is described as follows: Revised PRMT5 Biochemical Assay. As to conditions: 1 μM histone H4 derived peptide substrate, 1 μM S-Adenosyl methionine, 4 hours at 37 degree Celsius, Transcreener EPIGEN fluorescence polarisation. The procedure:
Compounds of the invention may be tested for in vitro activity in the following assay: A histone H4 derived peptide is used as substrate (amino acid sequence: […]NH2). Full-length PRMT5 enzyme (NCBI Reference sequence NP-006100.2) was co-expressed with Hiss-MEP50 in insect cells and purified via Nickel immobilized metal affinity and gel filtration chromatography (“the enzyme”).
The 6 μL reactions are run in Greiner brand black 384-well low volume assay plates. All reactions contained assay buffer (phosphate buffered saline, 0.01% (v/v) Tween-20, 0.01% (w/v) albumin from chicken egg white, 1 mM Dithiothreitol, 1 μM peptide substrate, 1 μM S-Adenosyl methionine, and 15 ng/reaction enzyme, with the enzyme being omitted from negative control reactions. Compounds were added in a volume of 100 nL from dilution series prepared in DMSO, positive and negative control reactions receiving the same volume DMSO without compound. The plates were sealed with adhesive seals and incubated for 4 hours at 37 degree Celsius. Reaction progress was measured using the Transcreener™ EPIGEN methyltransferase assay (BellBrook Labs, Madison, Wis.) as recommended by the manufacturer. To each reaction 2 μL detection mix were added, containing coupling enzymes, fluorescence polarisation tracer, and AMP antibody. Plates were incubated for 90 minutes before being read on a PerkinElmer EnVision™ plate reader in fluorescence polarisation mode. IC50 values were obtained from the raw readings by calculating percent inhibition (% I) for each reaction relative to controls on the same plate (% I=(I−CN)/(CP−CN) where CN/CP are the averages of the negative/positive reactions, respectively), then fitting the % I data vs. compound concentration [I] to % I=([…]) where A is the lower asymptote, B is the upper asymptote, C is the IC50 value, and D is the slope.
In turn, `O=C(NC[C@@H](O)CNC1Cc2ccccc2C1)c1ccc(C(=O)N2CCC(O)CC2)cc1` [Compound 60, (S)-N-(3-((2,3-dihydro-1H-inden-2-yl)amino)-2-hydroxypropyl)-4-(4-hydroxypiperidine-1-carbonyl)benzamide] showed a negative logarithm of the IC50 (pIC50) of 6.20. Next, `O=C(NC[C@@H](O)CNC1Cc2ccccc2C1)c1ccc(C(=O)N2CCC(CO)CC2)cc1` [Compound 61, (S)-N-(3-((2,3-dihydro-1H-inden-2-yl)amino)-2-hydroxypropyl)-4-(4-(hydroxymethyl)piperidine-1-carbonyl)benzamide]: 6.74; `O=C(NC[C@@H](O)CNC1Cc2ccccc2C1)c1cccc(C(=O)N2CCOCC2)c1` [Compound 62, (S)-N-(3-((2,3-dihydro-1H-inden-2-yl)amino)-2-hydroxypropyl)-3-(morpholine-4-carbonyl)benzamide]: 5.16; `O=C(NCC(O)CNC1Cc2ccccc2C1)c1ccc(N2CCCCC2=O)cc1` (centres unmarked) [Compound 63, N-(3-((2,3-Dihydro-1H-inden-2-yl)amino)-2-hydroxypropyl)-4-(2-oxopiperidin-1-yl)benzamide]: 5.14.

As to `CC(=O)N1CCC(Nc2ccc(C(=O)NCC(O)CNC3Cc4ccccc4C3)cc2)CC1` (centres unmarked) [Compound 64, 4-((1-Acetylpiperidin-4-yl)amino)-N-(3-((2,3-dihydro-1H-inden-2-yl)amino)-2-hydroxypropyl) benzamide], the pIC50 is 5.96. Next, `O=C(NC[C@@H](O)CNC1Cc2ccccc2C1)c1ccc(C(=O)N2CCS(=O)(=O)CC2)cc1` [Compound 65, (S)—N-(3-((2,3-dihydro-1H-inden-2-yl)amino)-2-hydroxypropyl)-4-(1,1-dioxidothiomorpholine-4-carbonyl)benzamide]: 5.89; `O=C(NC[C@@H](O)CNC1Cc2ccccc2C1)c1ccc(C(=O)N2CC3(COC3)C2)cc1` [Compound 66, (S)-N-(3-((2,3-dihydro-1H-inden-2-yl)amino)-2-hydroxypropyl)-4-(2-oxa-6-azaspiro[3.3]heptane-6-carbonyl)benzamide]: 5.81; `O=C(NC[C@@H](O)CNC1Cc2ccccc2C1)c1ccc(C(=O)N2CCCCC2)nc1` [Compound 68, (S)-N-(3-((2,3-dihydro-1H-inden-2-yl)amino)-2-hydroxypropyl)-6-(piperidine-1-carbonyl)nicotinamide]: 5.21. For `O=C(NC[C@H](O)CNC1Cc2ccccc2C1)c1ccc(C(=O)N2CCCCC2)nc1` [Compound 69, (R)-N-(3-((2,3-dihydro-1H-inden-2-yl)amino)-2-hydroxypropyl)-6-(piperidine-1-carbonyl)nicotinamide], the pIC50 is 5.00.

`CC[C@@H]1COCCN1C(=O)c1ccc(C(=O)NC[C@@H](O)CNC2Cc3ccccc3C2)cc1` [Compound 71, N-((S)-3-((2,3-dihydro-1H-inden-2-yl)amino)-2-hydroxypropyl)-4-((R)-3-ethylmorpholine-4-carbonyl)benzamide]: the negative logarithm of the IC50 (pIC50) was 6.63. The compound `CC1(C)CN(C(=O)c2ccc(C(=O)NC[C@@H](O)CNC3Cc4ccccc4C3)cc2)CCO1` [Compound 72, (S)-N-(3-((2,3-dihydro-1H-inden-2-yl)amino)-2-hydroxypropyl)-4-(2,2-dimethylmorpholine-4-carbonyl)benzamide] gave a negative-log IC50 (pIC50) of 6.47. As for `O=C(NC[C@@H](O)CNC1Cc2ccccc2C1)c1ccc(CC(=O)N2CCCCC2)nc1` [Compound 78, (S)-N-(3-((2,3-dihydro-1H-inden-2-yl)amino)-2-hydroxypropyl)-6-(2-oxo-2-(piperidin-1-yl)ethyl)nicotinamide], the figure is 5.25; as for `COCC1CCCCN1C(=O)c1ccc(C(=O)NC[C@@H](O)CNC2Cc3ccccc3C2)cc1` (stereo partly drawn) [Compound 80, N-((S)-3-((2,3-dihydro-1H-inden-2-yl)amino)-2-hydroxypropyl)-4-(2-(methoxymethyl)piperidine-1-carbonyl)benzamide], 6.60; as for `COC1CCN(C(=O)c2ccc(C(=O)NC[C@@H](O)CNC3Cc4ccccc4C3)cc2)C1` (stereo partly drawn) [Compound 81, N-((S)-3-((2,3-dihydro-1H-inden-2-yl)amino)-2-hydroxypropyl)-4-(3-methoxypyrrolidine-1-carbonyl)benzamide], 5.86. As for `COC1CCN(C(=O)c2ccc(C(=O)NC[C@@H](O)CNC3Cc4ccccc4C3)cc2)CC1` [Compound 86, (S)-N-(3-((2,3-dihydro-1H-inden-2-yl)amino)-2-hydroxypropyl)-4-(4-methoxypiperidine-1-carbonyl)benzamide], the figure is 6.17. For the compound `COc1cc(CC(=O)N2CCOCC2)ccc1C(=O)NC[C@@H](O)CNC1Cc2ccccc2C1` [Compound 87, (S)-N-(3-((2,3-dihydro-1H-inden-2-yl)amino)-2-hydroxypropyl)-2-methoxy-4-(2-morpholino-2-oxoethyl)benzamide], the negative-log IC50 (pIC50) was 5.56. This pIC50 lies 0.61 log units lower than the previous one. In turn, `O=C(NC[C@@H](O)CNC1Cc2ccccc2C1)c1ccc(C(=O)N2CCC3(CCO3)CC2)cc1` [Compound 88, (S)-N-(3-((2,3-dihydro-1H-inden-2-yl)amino)-2-hydroxypropyl)-4-(1-oxa-7-azaspiro[3.5]nonane-7-carbonyl)benzamide] gave a pIC50 of 6.64. Next, `COC(=O)Cc1ccc(C(=O)NC[C@@H](O)CNC2Cc3ccccc3C2)cc1` [Compound 89, (S)-methyl 2-(4-((3-((2,3-dihydro-1H-inden-2-yl)amino)-2-hydroxypropyl)carbamoyl)phenyl)acetate]: 6.07. Next, `O=C(NC[C@@H](O)CNC1Cc2ccccc2C1)c1ccc(CC(=O)N2CCOCC2)cc1` [Compound 90, (S)-N-(3-((2,3-dihydro-1H-inden-2-yl)amino)-2-hydroxypropyl)-4-(2-morpholino-2-oxoethyl)benzamide]: 5.50; `O=C(NC[C@H](O)CNC1Cc2ccccc2C1)c1ccc(CC(=O)N2CCCC2)cc1` [Compound 91, (R)-N-(3-((2,3-dihydro-1H-inden-2-yl)amino)-2-hydroxypropyl)-4-(2-oxo-2-(pyrrolidin-1-yl)ethyl)benzamide]: 5.91. Turning to `O=C(NC[C@@H](O)CNC1Cc2ccccc2C1)c1ccc(CC(=O)N2CCCC2)cc1` [Compound 100, (S)-N-(3-((2,3-dihydro-1H-inden-2-yl)amino)-2-hydroxypropyl)-4-(2-oxo-2-(pyrrolidin-1-yl)ethyl)benzamide], the pIC50 was 5.96.

As for `CC1(C)COCCN1C(=O)c1ccc(C(=O)NC[C@@H](O)CNC2Cc3ccccc3C2)cc1` [Compound 102, (S)-N-(3-((2,3-dihydro-1H-inden-2-yl)amino)-2-hydroxypropyl)-4-(3,3-dimethylmorpholine-4-carbonyl)benzamide], the pIC50 is 6.32. For `O=C(NC[C@@H](O)CNC1Cc2ccccc2C1)c1ccc(C(=O)N2CCOCC23CCC3)cc1` [Compound 104, (S)-N-(3-((2,3-dihydro-1H-inden-2-yl)amino)-2-hydroxypropyl)-4-(8-oxa-5-azaspiro[3.5]nonane-5-carbonyl)benzamide], the negative-log IC50 (pIC50) was 6.29. In turn, `NC(CNC(=O)c1ccc(C(=O)N2C3CCC2COC3)cc1)CNC1Cc2ccccc2C1` (centres unmarked) [Compound 106, N-(2-Amino-3-((2,3-dihydro-1H-inden-2-yl)amino)propyl)-4-(3-oxa-8-azabicyclo[3.2.1]octane-8-carbonyl)benzamide] gave a negative logarithm of the IC50 (pIC50) of 4.62. For the compound `NC(=O)C(CNC(=O)c1ccc(C(=O)N2CCOCC2)cc1)CNC1Cc2ccccc2C1` (centres unmarked) [Compound 107, N-(3-Amino-2-(((2,3-dihydro-1H-inden-2-yl)amino)methyl)-3-oxopropyl)-4-(morpholine-4-carbonyl)benzamide], the pIC50 was 4.28.

`O=C(NCC(CO)CNC1Cc2ccccc2C1)c1ccc(C(=O)N2CCOCC2)cc1` (centres unmarked) [Compound 108, N-(3-((2,3-Dihydro-1H-inden-2-yl)amino)-2-(hydroxymethyl)propyl)-4-(morpholine-4-carbonyl)benzamide] had a pIC50 of 4.67. Against the preceding compound, the pIC50 is 0.39 log units higher. With `CS(=O)(=O)N1CC(Nc2cc(C(=O)NC[C@@H](O)CNC3Cc4ccccc4C3)ccn2)C1` [Compound 109, (S)—N-(3-((2,3-Dihydro-1H-inden-2-yl)amino)-2-hydroxypropyl)-2-((1-(methylsulfonyl)azetidin-3-yl)amino)isonicotinamide bis 2,2,2-trifluoroacetic acid salt], the pIC50 was 4.95. As to `CC(=O)N1CC(Nc2cc(C(=O)NC[C@@H](O)CNC3Cc4ccccc4C3)ccn2)C1` [Compound 110, (S)-2-((1-Acetylazetidin-3-yl)amino)-N-(3-((2,3-dihydro-1H-inden-2-yl)amino)-2-hydroxypropyl)isonicotinamide bis 2,2,2-trifluoroacetic acid salt], the pIC50 is 6.78. This pIC50 is 1.83 log units higher than that of the compound before. On to `CN(C[C@H](O)CNC(=O)c1ccc(C(=O)N2CCOCC2)cc1)C1Cc2ccccc2C1` [Compound 112, (R)—N-(3-((2,3-Dihydro-1H-inden-2-yl)(methyl)amino)-2-hydroxypropyl)-4-(morpholine-4-carbonyl)benzamide], for which the pIC50 is 5.03.
